The values that follow come from ChEMBL document CHEMBL5154725, “SAR evolution towards potent C-terminal carboxamide peptide inhibitors of Zika virus NS2B-NS3 protease” (Bioorg Med Chem, 2022).

Each structure is given as a SMILES string. Calls of active or inactive are those of the source. No cut-off for these calls is given here. Non-standard residues stand in square brackets, D forms with d. Residues, ends and D or L forms follow the SMILES beside them. *: point of attachment. Phe(4-CH2NH2) = NCc1ccc(C[C@H](N)C(=O)O)cc1; Aad = N[C@@H](CCCC(=O)O)C(=O)O; PhAc = O=C(Cc1ccccc1)*

The subject of data set [1] is Zika virus. Briefly: Antiviral activity against ZIKV infected in African Green monkey Vero cells assessed as reduction in viral replication. It counts as functional, organism-based.
A short description of data set [2]: (§1) Inhibition of 6-His tagged-G4SG4 fused ZIKV NS2B (49 to 95 residues) R95A mutant-NS3 (1 to 170 residue) R29G mutant expressed in Escherichia coli BL21 (DE3) using Bz-Nle-K-RR-AMC substrate preincubated for 10 mins followed by substrate addition and measured after 30 mins by fluorescence assay. Set-up: species or system Zika virus.
Data set [3] has as its system Zika virus. Briefly: Inhibition of 6-His tagged-G4SG4 fused ZIKV NS2B (49 to 95 residues) R95A mutant-NS3 (1 to 170 residue) R29G mutant expressed in Escherichia coli BL21 (DE3) assessed as covalent adduct formation using Bz-Nle-K-RR-AMC substrate preincubated for 10 mins followed by substrate addition and measured after 30 mins by LC-HRMS analysis. The note with it: time 40.0 min.

Data set [4] in a line: Binding affinity to 6-His tagged-G4SG4 fused ZIKV NS2B (49 to 95 residues) R95A mutant-NS3 (1 to 170 residue) R29G mutant expressed in Escherichia coli BL21 (DE3) by surface plasmon resonance assay. Details: species or system Zika virus. On the technique in general: In SPR one partner is held on a chip, and binding of the other changes the refractive index at the surface.

The nature of data set [5]: Stability of compound assessed 6-His tagged-G4SG4 fused ZIKV NS2B (49 to 95 residues) R95A mutant-NS3 (1 to 170 residue) R29G mutant expressed in Escherichia coli BL21 (DE3) based degradation by LC-HRMS analysis. It counts as ADME. To be noted: zika virus.
Another data set has as its target Genome polyprotein (dengue virus type 2, UniProt P29990). The experiment in a line: Inhibition of 6-His tagged-G4SG4 fused DENV2 NS2B (1394 to 1440 residues) -NS3 (1476 to 1660 residue) expressed in Escherichia coli BL21 (DE3) using Bz-Nle-K-RR-AMC substrate preincubated for 10 mins followed by substrate addition and measured after 30 mins by fluorescence assay.

The next data set has as its target Trypsin (Homo sapiens, UniProt P07477+P07478+P35030). Briefly: Inhibition of human trypsin. It counts as protein assay.
Data set [6] in a line: Inhibition of 6-His tagged-G4SG4 fused WNV NS2B (1423 to 1470 residues) -NS3 (1506 to 1689 residue) using pERTKR-AMC substrate preincubated for 10 mins followed by substrate addition and measured after 30 mins by fluorescence assay. Details: species or system West Nile virus.
Data set [7] deals with Zika virus. The description is as §1. To be noted: time 40.0 min.
Data set [8] deals with Zika virus. Briefly: Inhibition of 6-His tagged-G4SG4 fused ZIKV NS2B (49 to 95 residues) R95A mutant-NS3 (1 to 170 residue) R29G mutant expressed in Escherichia coli BL21 (DE3) using Bz-Nle-K-RR-AMC substrate at 100 uM preincubated for 10 mins followed by substrate addition and measured after 30 mins by fluorescence assay relative to control. To be noted: time 40.0 min.
In data set [9] the test system is Zika virus. The experiment in a line: Inhibition of 6-His tagged-G4SG4 fused ZIKV NS2B (49 to 95 residues) R95A mutant-NS3 (1 to 170 residue) R29G mutant expressed in Escherichia coli BL21 (DE3) using Bz-Nle-K-RR-AMC substrate at 50 uM preincubated for 10 mins followed by substrate addition and measured after 30 mins by fluorescence assay relative to control. The note with it: time 40.0 min.

Chain of Genome polyprotein (P29990 1346-1475 limits assumed): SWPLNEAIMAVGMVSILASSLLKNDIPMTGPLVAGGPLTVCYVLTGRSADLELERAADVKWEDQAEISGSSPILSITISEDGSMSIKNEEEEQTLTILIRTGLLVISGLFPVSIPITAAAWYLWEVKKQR
Chain of Genome polyprotein (P29990 1476-2093 limits assumed): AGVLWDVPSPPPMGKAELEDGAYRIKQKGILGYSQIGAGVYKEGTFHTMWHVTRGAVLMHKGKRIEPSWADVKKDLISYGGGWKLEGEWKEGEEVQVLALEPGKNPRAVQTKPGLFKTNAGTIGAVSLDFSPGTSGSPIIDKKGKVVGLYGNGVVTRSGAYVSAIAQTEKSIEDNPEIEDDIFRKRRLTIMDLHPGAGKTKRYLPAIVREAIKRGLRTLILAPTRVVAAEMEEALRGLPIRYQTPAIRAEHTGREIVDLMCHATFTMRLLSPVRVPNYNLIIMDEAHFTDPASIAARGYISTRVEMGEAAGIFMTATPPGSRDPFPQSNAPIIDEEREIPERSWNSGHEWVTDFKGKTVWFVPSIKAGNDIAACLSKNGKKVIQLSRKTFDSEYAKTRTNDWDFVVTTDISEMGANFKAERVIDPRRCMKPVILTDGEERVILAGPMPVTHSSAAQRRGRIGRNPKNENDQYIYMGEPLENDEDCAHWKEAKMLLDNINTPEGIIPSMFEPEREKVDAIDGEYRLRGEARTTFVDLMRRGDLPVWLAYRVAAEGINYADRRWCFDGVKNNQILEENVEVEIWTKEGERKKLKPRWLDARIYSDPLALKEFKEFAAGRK

What is called EC50 is the concentration needed to bring the measured effect to its halfway point. Broadly, the IC50 is the concentration needed to halve the response being measured. As usually defined, the Ki is the dissociation constant of the complex between target and ligand, obtained from inhibition or displacement. As a reminder, the inhibition is the percentage by which the read-out fell short of the control. In general, Kd refers to the constant that tells how readily two partners part at equilibrium. `CC(=O)N[C@@H](CCCCN)C(=O)N[C@@H](CCCCN)C(=O)N[C@H](C(=O)NCc1ccccc1)c1ccc(OCc2ccc(C(F)(F)F)cc2)cc1`: the concentration giving a half-maximal response (EC50) in the data set with Zika virus [1] came out at 8.5 µM. Besides, the IC50 in data set [2] stood at 28 nM; at Genome polyprotein it was 200 nM; on Trypsin, 2.3 µM; in data set [6], 800 nM. This compound also registered an inhibitory constant (Ki) in data set [2] of 7 nM. Moreover, the inhibition entry in the data set with Zika virus [3] is “Active”. This compound also displayed a Kd in [4] of 11 nM. Besides, in data set [5], the Stability result is “Stable”.

A word on the IC10: it is the concentration needed for an effect of 10%. What is called IC80 is the point of the concentration-response curve where the effect stands at 80%. Take `N=C(N)NCCC[C@H](NC(=O)[C@H](CCCCN)NC(=O)[C@H](CCCCN)NC(=O)Cc1ccccc1)C(N)=O` (PhAc-Lys-Lys-Arg-NH2): in the data set on Zika virus [7], the IC10 came out at 0.3 µM and the 80% effect level (IC80) was put at 10 µM. Besides, in [2], 3000 nM corresponded to half-maximal inhibition (IC50) and the Ki is 2400 nM.

Compound `N=C(N)NCCC[C@H](NC(=O)[C@H](Cc1ccc(CN)cc1)NC(=O)[C@H](CCCCN)NC(=O)Cc1ccccc1)C(N)=O` (PhAc-Lys-[Phe(4-CH2NH2)]-Arg-NH2) registered an inhibition in the data set on Zika virus [8] of 66%.

Consider `CC(=O)N[C@H](C(=O)NCC(=O)N[C@@H](CCCCN)C(=O)N[C@@H](CCCNC(=N)N)C(=O)O)[C@@H](C)O` (Ac-TGKR-OH), for which the inhibition in the data set on Zika virus [8] was 40%.

In the data set on Zika virus [9], `C[C@H](NC(=O)[C@H](CCCNC(=N)N)NC(=O)[C@H](CCCCN)NC(=O)[C@H](CCCCN)NC(=O)Cc1ccccc1)c1ccccc1` came in with an inhibition of 50%.

In the data set on Zika virus [8], `CC(=O)N[C@H](C(=O)NCC(=O)N[C@@H](CCCCN)C(=O)N[C@@H](CCCNC(=N)N)C(N)=O)[C@@H](C)O` (Ac-TGKR-NH2) displayed an inhibition of 40%.

Regarding `N=C(N)NCCC[C@H](NC(=O)[C@H](CCCCN)NC(=O)CNC(=O)Cc1ccccc1)C(=O)O` (PhAc-Gly-Lys-Arg-OH), the inhibition in the data set with Zika virus [8] amounted to 40%.

In the data set on Zika virus [8], `N=C(N)NCCC[C@H](NC(=O)[C@H](CCCCN)NC(=O)CNC(=O)Cc1ccccc1)C(N)=O` (PhAc-Gly-Lys-Arg-NH2) yielded an inhibition of 40%.

In the case of `CC(=O)N[C@@H](CCCCN)C(=O)N[C@@H](CCCCN)C(=O)N[C@H](C(=O)NCc1ccc(OCc2ccc(C(F)(F)F)cc2)cc1)c1ccccc1`, the EC50 in the data set with Zika virus [1] is 11.2 µM. In addition, in [2], the midpoint of inhibition, the IC50, lay at 41 nM and the inhibition constant (Ki) turned out to be 14 nM. Besides, the inhibition entry with Zika virus [3] is “Active”. The compound further came in with an equilibrium dissociation constant (Kd) in data set [4] of 23 nM. Further, the Stability result in data set [5] is recorded as “Stable”.

Compound `N=C(N)NCCC[C@H](NC(=O)[C@H](CCCCN)NC(=O)[C@H](CCCC(N)=O)NC(=O)Cc1ccccc1)C(N)=O` (PhAc-[Aad](NH2)-Lys-Arg-NH2) returned an inhibition with Zika virus [9] of 40%.
